Laboratory results taken from patent US20080161232A1, “C5a Receptor Antagonist” (JERINI AG, priority 2005, published 2008).
Like-named read-outs stand apart in the source and are kept apart here. Starred links: 1 amine or outer side, 2 acyl side, 3 side chain; linkers in the order of their positions; H or OH if unused. Positions of bridges follow the written chain, without caps; N, C: chain ends. Non-standard residues stand in square brackets, D forms with d. Residues, ends and D or L forms follow the SMILES beside them. Groups on a side chain read outwards from the residue. *: point of attachment. Decanoyl(3,6,9-trioxa) = COCCOCCOCC(=O)*; Phe(4-NH2) = Nc1ccc(C[C@H](N)C(=O)O)cc1; Phe(4-Me) = Cc1ccc(C[C@H](N)C(=O)O)cc1; 2Nal = N[C@@H](Cc1ccc2ccccc2c1)C(=O)O; His(τ-Me) = Cn1cnc(C[C@H](N)C(=O)O)c1; Hyp = O=C(O)[C@@H]1C[C@@H](O)CN1; 4Pal = N[C@@H](Cc1ccncc1)C(=O)O; 2Thi = N[C@@H](Cc1cccs1)C(=O)O; Cha = N[C@@H](CC1CCCCC1)C(=O)O; dCha = N[C@H](CC1CCCCC1)C(=O)O; NHCH2CH(OH)CH2OH = OCC(O)CN*; hLeu = CC(C)CC[C@H](N)C(=O)O; Nle = CCCC[C@H](N)C(=O)O; Orn = NCCC[C@H](N)C(=O)O; Pra = C#CC[C@H](N)C(=O)O; Nva = CCC[C@H](N)C(=O)O; CO = O=C([*:1])[*:2]

Target: T1, human C5aR(CD88) (Homo sapiens, UniProt P21730)
T1 construct: expressed in transfected cells; host or cells: rat basophilic leukemia cells (RBL)
T1 sequence (P21730 1-350): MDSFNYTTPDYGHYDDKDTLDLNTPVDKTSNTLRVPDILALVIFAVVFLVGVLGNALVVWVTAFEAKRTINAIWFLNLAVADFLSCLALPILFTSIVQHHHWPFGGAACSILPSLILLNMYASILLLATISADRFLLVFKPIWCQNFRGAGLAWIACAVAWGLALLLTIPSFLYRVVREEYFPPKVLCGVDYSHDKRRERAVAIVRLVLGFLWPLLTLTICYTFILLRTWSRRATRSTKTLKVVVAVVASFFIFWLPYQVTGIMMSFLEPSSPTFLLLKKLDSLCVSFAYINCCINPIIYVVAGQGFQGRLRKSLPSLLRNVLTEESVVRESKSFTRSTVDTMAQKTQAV
Experiment: Determination of the IC50 value in an enzyme release assay (functional assay, antagonistic activity)
Type: cell-based
Settings: for inhibitory activity (in words): functional assay of example 11, noteworthy = IC50 less than 200 nM

[1] = antagonistic activity, IC50 group in enzyme release assay, RBL cells expressing human C5aR(CD88), read-out: activity (group)

SMILES	IC50 [1]	inhibitory activity (in words)	also measured
CCCC[C@@H]1NC(=O)[C@H](Cc2c[nH]c3ccccc23)NC(=O)[C@@H](CC2CCCCC2)NC(=O)[C@@H]2CCCN2C(=O)[C@@H](NC(=O)[C@H](Cc2ccccc2)NC(=O)CON=CC(O)C(O)C(O)C(O)CO)CCCNC1=O (single isomer, unassigned) [Compound 334, Fck-Phe-[Orn-Pro-cha-Trp-Nle]]	0.05 to 0.2 µM		
CC(=O)N[C@@H](Cc1ccccc1)C(=O)N[C@@H](CCCCN)C(=O)N[C@@H](C)C(=O)N[C@@H](CC1CCCCC1)C(=O)N[C@@H](C)C(=O)N[C@@H](CC(C)C)C(=O)N[C@H](C)C(=O)N[C@@H](Cc1ccc(O)cc1)C(=O)O [Ac-Phe-Lys-Ala-Cha-Ala-Leu-ala-Tyr-OH, reference compound] (Ac-FKA[Cha]AL[dA]Y-OH)			IC50 (functional assay as used in this application, values in text, read-out: IC50): 1.3 µM
COCCOCCOCC(=O)O[C@@H]1C[C@H]2C(=O)N[C@H](CC3CCCCC3)C(=O)N[C@@H](Cc3c[nH]c4ccccc34)C(=O)N[C@@H](Cc3ccccc3)C(=O)NCCC[C@H](NC(=O)[C@H](Cc3ccccc3)NC(C)=O)C(=O)N2C1 [Ac-Phe-[Orn-Hyp(COCH2OCH2CH2OCH2CH2OCH3)-cha-Trp-Phe]] (Ac-F[Orn][Hyp](Decanoyl(3,6,9-trioxa))[dCha]WF; lactam 2-C)		noteworthy inhibitory activity	
CC(=O)N[C@@H](Cc1ccccc1)C(=O)N[C@H]1CCCNC(=O)[C@H](Cc2ccncc2)NC(=O)[C@H](Cc2c[nH]c3ccccc23)NC(=O)[C@@H](CC2CCCCC2)NC(=O)[C@@H]2CCCN2C1=O [Ac-Phe-[Orn-Pro-cha-Trp-Ppa]] (Ac-F[Orn]P[dCha]W[4Pal]; lactam 2-C)		noteworthy inhibitory activity	
CC(=O)N[C@@H](Cc1ccccc1)C(=O)N[C@H]1CCCNC(=O)[C@H](Cc2ccccc2)NC(=O)[C@H](Cc2c[nH]c3ccccc23)NC(=O)[C@@H](CC2CCCCC2)NC(=O)[C@H](CO)NC1=O [Ac-Phe-[Orn-Ser-cha-Trp-Phe]] (Ac-F[Orn]S[dCha]WF; lactam 2-C)		noteworthy inhibitory activity	
CCCC[C@@H]1NC(=O)[C@H](Cc2c[nH]c3ccccc23)NC(=O)[C@@H](CC2CCCCC2)NC(=O)[C@@H]2C[C@@H](OC(=O)COCCOCCOC)CN2C(=O)[C@@H](NC(=O)[C@H](Cc2ccccc2)NC(C)=O)CCCNC1=O [Compound 5, Ac-Phe-[Orn-Hyp(COCH2OCH2CH2OCH2CH2OCH3)-cha-Trp-Nle]] (Ac-F[Orn][Hyp](Decanoyl(3,6,9-trioxa))[dCha]W[Nle]; lactam 2-C)	0.05 to 0.2 µM		
CCCC[C@@H]1NC(=O)[C@H](Cc2c[nH]c3ccccc23)NC(=O)[C@@H](CC2CCCCC2)NC(=O)[C@@H]2C[C@@H](OC(=O)NCC(O)CO)CN2C(=O)[C@@H](NC(=O)[C@H](Cc2ccccc2)NC(C)=O)CCCNC1=O (stereo partly drawn) [Compound 6, Ac-Phe-[Orn-Hyp(CONH—CH2CH(OH)—CH2OH)-cha-Trp-Nle]] (Ac-F[Orn][Hyp]([CO-NHCH2CH(OH)CH2OH])[dCha]W[Nle]; lactam 2-C)	0.05 to 0.2 µM		
CC(=O)N[C@@H](Cc1ccccc1)C(=O)N[C@H]1CCCNC(=O)[C@H](CCCNC2=NCCN2)NC(=O)[C@H](Cc2c[nH]c3ccccc23)NC(=O)[C@@H](CC2CCCCC2)NC(=O)[C@@H]2CCCN2C1=O [Compound 7, Ac-Phe-[Orn-Pro-cha-Trp-Arg(CH2CH2)]]	0.2 to 2 µM		
CC(=O)N[C@@H](Cc1ccccc1)C(=O)N[C@H]1CCCNC(=O)[C@H](CCCNC(N)=O)NC(=O)[C@H](Cc2c[nH]c3ccccc23)NC(=O)[C@@H](CC2CCCCC2)NC(=O)[C@@H]2CCCN2C1=O [Compound 10, Ac-Phe-[Orn-Pro-cha-Trp-Cit], reference compound]	0.2 to 2 µM		
CC(=O)N[C@@H](Cc1ccccc1)C(=O)N[C@H]1CCCNC(=O)[C@H](Cc2ccc(N)cc2)NC(=O)[C@H](Cc2c[nH]c3ccccc23)NC(=O)[C@@H](CC2CCCCC2)NC(=O)[C@@H]2CCCN2C1=O [Compound 14, Ac-Phe-[Orn-Pro-cha-Trp-Paf]] (Ac-F[Orn]P[dCha]W[Phe(4-NH2)]; lactam 2-C (inferred))	0.02 to 0.05 µM	noteworthy inhibitory activity	IC50 (functional assay of example 11, values in text, read-out: IC50): 0.03 µM
CC(=O)N[C@@H](Cc1ccccc1)C(=O)N[C@H]1CCCNC(=O)[C@H](Cc2cn(C)cn2)NC(=O)[C@H](Cc2c[nH]c3ccccc23)NC(=O)[C@@H](CC2CCCCC2)NC(=O)[C@@H]2CCCN2C1=O [Compound 20, Ac-Phe-[Orn-Pro-cha-Trp-Ecr]] (Ac-F[Orn]P[dCha]W[His(τ-Me)]; lactam 2-C)	0.05 to 0.2 µM	noteworthy inhibitory activity	
CC(=O)N[C@@H](Cc1ccccc1)C(=O)N[C@H]1CCCNC(=O)[C@H](CCCCN)NC(=O)[C@H](Cc2c[nH]c3ccccc23)NC(=O)[C@@H](CC2CCCCC2)NC(=O)[C@@H]2CCCN2C1=O [Compound 22] (Ac-F[Orn]P[dCha]WK; lactam 2-C (inferred))	> 2 µM		
CSCC[C@@H]1NC(=O)[C@H](Cc2c[nH]c3ccccc23)NC(=O)[C@@H](CC2CCCCC2)NC(=O)[C@@H]2CCCN2C(=O)[C@@H](NC(=O)[C@H](Cc2ccccc2)NC(C)=O)CCCNC1=O [Compound 29, Ac-Phe-[Orn-Pro-cha-Trp-Met]] (Ac-F[Orn]P[dCha]WM; lactam 2-C)	0.05 to 0.2 µM	without significant loss of activity	inhibitory activity (in words) (listed as Ac-Phe-[Orn-Pro-cha-Trp-Met]): noteworthy inhibitory activity
CCC[C@@H]1NC(=O)[C@H](Cc2c[nH]c3ccccc23)NC(=O)[C@@H](CC2CCCCC2)NC(=O)[C@@H]2CCCN2C(=O)[C@@H](NC(=O)[C@H](Cc2ccccc2)NC(C)=O)CCCNC1=O [Compound 31, Ac-Phe-[Orn-Pro-cha-Trp-Nva]] (Ac-F[Orn]P[dCha]W[Nva]; lactam 2-C)	0.01 to 0.02 µM	without significant loss of activity	inhibitory activity (in words) (listed as Ac-Phe-[Orn-Pro-cha-Trp-Nva]): noteworthy inhibitory activity
CC(=O)N[C@@H](Cc1ccccc1)C(=O)N[C@H]1CCCNC(=O)[C@H](CCC(C)C)NC(=O)[C@H](Cc2c[nH]c3ccccc23)NC(=O)[C@@H](CC2CCCCC2)NC(=O)[C@@H]2CCCN2C1=O [Compound 32, Ac-Phe-[Orn-Pro-cha-Trp-Hle]] (Ac-F[Orn]P[dCha]W[hLeu]; lactam 2-C)	0.02 to 0.05 µM	without significant loss of activity	inhibitory activity (in words) (listed as Ac-Phe-[Orn-Pro-cha-Trp-Hle]): noteworthy inhibitory activity
CCSC[C@@H]1NC(=O)[C@H](Cc2c[nH]c3ccccc23)NC(=O)[C@@H](CC2CCCCC2)NC(=O)[C@@H]2CCCN2C(=O)[C@@H](NC(=O)[C@H](Cc2ccccc2)NC(C)=O)CCCNC1=O [Compound 34, Ac-Phe-[Orn-Pro-cha-Trp-Ebd]] (Ac-F[Orn]P[dCha]WC(Et); lactam 2-C)	0.02 to 0.05 µM	without significant loss of activity	inhibitory activity (in words) (listed as Ac-Phe-[Orn-Pro-cha-Trp-Ebd]): noteworthy inhibitory activity
C#CC[C@@H]1NC(=O)[C@H](Cc2c[nH]c3ccccc23)NC(=O)[C@@H](CC2CCCCC2)NC(=O)[C@@H]2CCCN2C(=O)[C@@H](NC(=O)[C@H](Cc2ccccc2)NC(C)=O)CCCNC1=O [Compound 35, Ac-Phe-[Orn-Pro-cha-Trp-Eag]] (Ac-F[Orn]P[dCha]W[Pra]; lactam 2-C)	0.005 to 0.01 µM	without significant loss of activity	inhibitory activity (in words) (listed as Ac-Phe-[Orn-Pro-cha-Trp-Eag]): noteworthy inhibitory activity
CC(=O)N[C@@H](Cc1ccccc1)C(=O)N[C@H]1CCCNC(=O)[C@H](Cc2ccc(C)cc2)NC(=O)[C@H](Cc2c[nH]c3ccccc23)NC(=O)[C@@H](CC2CCCCC2)NC(=O)[C@@H]2CCCN2C1=O [Compound 36, Ac-Phe-[Orn-Pro-cha-Trp-Pmf]] (Ac-F[Orn]P[dCha]W[Phe(4-Me)]; lactam 2-C)	0.02 to 0.05 µM	without significant loss of activity	inhibitory activity (in words) (listed as Ac-Phe-[Orn-Pro-cha-Trp-Pmf]): noteworthy inhibitory activity
CC(=O)N[C@@H](Cc1ccccc1)C(=O)N[C@H]1CCCNC(=O)[C@H](Cc2ccc3ccccc3c2)NC(=O)[C@H](Cc2c[nH]c3ccccc23)NC(=O)[C@@H](CC2CCCCC2)NC(=O)[C@@H]2CCCN2C1=O [Compound 37, Ac-Phe-[Orn-Pro-cha-Trp-2Ni]] (Ac-F[Orn]P[dCha]W[2Nal]; lactam 2-C)	0.05 to 0.2 µM	without significant loss of activity	inhibitory activity (in words) (listed as Ac-Phe-[Orn-Pro-cha-Trp-2Ni]): noteworthy inhibitory activity
CC(=O)N[C@@H](Cc1ccccc1)C(=O)N[C@H]1CCCNC(=O)[C@H](Cc2cccs2)NC(=O)[C@H](Cc2c[nH]c3ccccc23)NC(=O)[C@@H](CC2CCCCC2)NC(=O)[C@@H]2CCCN2C1=O [Compound 38, Ac-Phe-[Orn-Pro-cha-Trp-Thi]] (Ac-F[Orn]P[dCha]W[2Thi]; lactam 2-C)	0.02 to 0.05 µM	without significant loss of activity	inhibitory activity (in words) (listed as Ac-Phe-[Orn-Pro-cha-Trp-Thi]): noteworthy inhibitory activity
